Results taken from ChEMBL document CHEMBL3351290, “Structural studies provide clues for analog design of specific inhibitors of Cryptosporidium hominis thymidylate synthase-dihydrofolate reductase” (Bioorg Med Chem Lett, 2014).

Key:
[1] = Toxicity in Cryptosporidium hominis Iowa sporozoites infected human HCT8 cells assessed as effect on RNA levels; assay type: cell-based; conditions: hct-8
[2] = Toxicity in Cryptosporidium hominis Iowa sporozoites infected human HCT8 cells assessed as effect on cell viability by microscopy; assay type: cell-based; conditions: hct-8
Dihydrofolate reductase = molecular target: T1, Dihydrofolate reductase (Homo sapiens, UniProt P00374); assay: Inhibition of human DHFR
T1 sequence (P00374 whole entry): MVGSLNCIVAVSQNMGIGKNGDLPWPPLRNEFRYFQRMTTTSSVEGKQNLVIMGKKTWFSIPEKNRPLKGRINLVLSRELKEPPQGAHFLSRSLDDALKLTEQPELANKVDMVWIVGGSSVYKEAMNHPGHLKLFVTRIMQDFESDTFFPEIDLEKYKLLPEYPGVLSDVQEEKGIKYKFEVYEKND

Thymidylate synthase = Thymidylate synthase (Homo sapiens, UniProt P04818); assay: Inhibition of human thymidylate synthase
Cryptosporidium hominis [3] = assay: Antiparasitic activity against compound pre-treated Cryptosporidium hominis Iowa sporozoites infected in human HCT8 cells assessed as reduction in parasite infection; assay type: functional, organism-based; conditions: HCT-8
Cryptosporidium hominis [4] = assay: Antiparasitic activity against Cryptosporidium hominis Iowa intracellular forms infected in human HCT8 cells assessed as reduction in parasite infection dosed 2 hrs after parasite infection; assay type: functional, organism-based; conditions: HCT-8, 2 h
[5] = Toxicity in Cryptosporidium hominis Iowa sporozoites infected human HCT8 cells assessed as effect on cell morphology by microscopy; assay type: cell-based; conditions: hct-8

Sequence of Thymidylate synthase (P04818 whole entry): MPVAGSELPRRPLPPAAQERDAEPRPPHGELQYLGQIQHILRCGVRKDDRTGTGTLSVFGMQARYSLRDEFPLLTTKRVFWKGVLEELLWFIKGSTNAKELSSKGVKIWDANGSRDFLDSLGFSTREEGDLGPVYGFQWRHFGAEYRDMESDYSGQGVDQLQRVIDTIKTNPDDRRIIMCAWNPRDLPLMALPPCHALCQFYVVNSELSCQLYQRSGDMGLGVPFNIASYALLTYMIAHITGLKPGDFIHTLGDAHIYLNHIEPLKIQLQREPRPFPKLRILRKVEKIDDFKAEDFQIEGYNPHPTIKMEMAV

Nc1nc2[nH]cc(Cc3ccc(C(=O)N[C@@H](CCC(=O)O)C(=O)O)cc3)c2c(=O)[nH]1
Activity [1]: Non-toxic
Activity [2]: Non-toxic
IC50 (Dihydrofolate reductase): 0.64 µM
IC50 (Thymidylate synthase): 1.8 µM
EC50 (Cryptosporidium hominis [3]): 1 µM
EC50 (Cryptosporidium hominis [4]): 1 µM
Activity [5]: Non-toxic
